Results reported in US20200188394A1, “TREATMENT OF LIVER DISEASE” (UNIVERSITY OF NEWCASTLE UPON TYNE, priority 2016, published 2020).
“Also recorded” adds a separate entry of the source.

Experiments:
Assay type in all cases: cell-based, rat
hepatocytes [1] = assay: Cell G6P / hexose 6-phosphate (H6P) determination in hepatocytes; settings: for H6P concentration / glucose-6-phosphate concentration: hepatocytes; for H6P concentration: 5 or 10 mM DG with 5 mM glucose (FIG. 6B); for glucose-6-phosphate concentration: 2 hours, 10 nM insulin, 5, 15 or 25 mM glucose, 10 μM GKA vs glucose alone (FIG. 2B)
Description: (§1) Hepatocytes were isolated from male Wistar rats (body wt 200-300 g) (Envigo, Bicester, UK). Procedures conformed to Home Office Regulations. The hepatocytes were suspended in Minimum Essential Medium (MEM) 21430 (Life Technologies, GIBCO BRL, Grand Island, N.Y.) with 5% (v/v) calf serum (Life Technologies, GIBCO BRL, Grand Island, N.Y.) and seeded on gelatin-coated plates. After cell attachment (˜4 hours) the medium was replaced by serum-free medium containing 5 mM glucose, 10 nM dexamethasone, 1 nM insulin and experiments were started after ˜20 hours culture by challenge with media containing 5 mM glucose, 15 mM glucose or 25 mM glucose and other additions as indicated.
Hepatocytes were incubated for 1 or 2 hours in MEM containing 10 nM insulin and 5, 15, or 25 mM glucose with or without 10μM GKA 3-cyclopentyl-2-(4-methanesulfonylphenyl)-N-thiazol-2-yl-propionamide (RO 28-1675) (Axon MedChem BV, Groningen) for determination of glucose phosphorylation (nmol/2 h per mg) and cell G6P (nmol/mg protein).
(§2) Incubations with 2-deoxyglucose (DG) where carried out as described previously but with 5 or 10 mM DG with 5 mM glucose (5G) and with or without 2 μM S4048.
Medium containing the cultured hepatocytes was drained from cell culture plates and the plates were snap-frozen in liquid nitrogen and stored at −80° C. For H6P determination, cells were extracted in 2.5% sulphosalicylic acid for deproteinization (10,000g, 10 min) and the supernatants were then neutralized with KOH/KH^2PO4 (3 M/1 M) and metabolites assayed on the neutralized deproteinized extracts. For fructose 2,6-P2, cells were extracted in 0.15 M NaOH.
For G6P and H6P determination the assay procedure involved coupling of the dehydrogenation of G6P by glucose-6-phosphate dehydrogenase to the […] by the reduction of the molecule resazurin to resorufin by NADP measured by the […]. Standards of G6P (2 to 20 μM) were prepared in 2.5% sulphosalicylic acid and neutralized with KOH/KH2PO4 (3 M/1 M) as in samples for metabolite determination. Standards and samples (20 μl) were then assayed in a final reaction volume of 200 μI containing 50 mM triethanolamine (TEA, pH 7.6), 1.0 mM MgCl2, 100 μM NADP+, 10 μM resazurin, 0.1 U/ml G6PD, and 0.2 U/ml diaphorase. The mixtures were then incubated for 30 min at room temperature. Fluorescence at 590 nm was measured using excitation at 530 nm using a plate reader (M5E Molecular devices). Background fluorescence was corrected by subtracting the value of the no-G6P control from all sample readings and sample values were read off the linear standard curve determined from the G6P standards.
Metabolites are expressed as nmol/mg protein except for fructose 2,6-P2 which is expressed as pmol/mg of total cell protein determined by a Lowry assay.

G6pc mRNA = assay: Relative G6pc mRNA expression in hepatocytes (real-time RT-PCR); settings: for G6pc mRNA relative expression: 5 or 10 mM DG with 5 mM glucose (FIG. 6C); for relative expression of G6pc mRNA: 4 hours
Description: as §1
(§3) Incubations for mRNA analysis and fructose 2,6-bisphosphate were for 4 hrs in MEM with 5, 15, or 25 mM glucose with or without 10 nM insulin and with or without 2 mM fructose. In samples including GKA, 10 μM GKA RO 28-1675 was added.
as §2
(§4) RNA was extracted using TRIzol (Invitrogen) and cDNA was synthesized from 1 μg of RNA with MMLV (Promega). Real-time RT-PCR was performed in a total volume of 10 μl containing 50 ng of reverse transcribed RNA and 5 ng of forward and reverse primers using a Sybr-Green protocol (Promega) in a Roche Capillary Light Cycler. Relative mRNA levels (vs control) were calculated by the delta cycle threshold method.

Gck mRNA = assay: Relative Gck mRNA expression in hepatocytes (real-time RT-PCR); settings: for Gck mRNA relative expression: 5 or 10 mM DG with 5 mM glucose (FIG. 6D); for relative expression of Gck mRNA: 4 hours, listed as GKA
Description: as §1, §3, §2, §4

Pklr mRNA = assay: Relative Pklr mRNA expression in hepatocytes (real-time RT-PCR); settings: 4 hours, listed as GKA
Description: as §1, §3, §2
RNA was extracted using TRIzol (Invitrogen) and cDNA was synthesized from 1 μg of RNA with MMLV (Promega). […] Relative mRNA levels (vs control) were calculated by the delta cycle threshold method.

hepatocytes [2] = assay: Fructose 2,6-bisphosphate determination in hepatocytes; settings: 4 hours, GKA with 15 mM glucose vs 5 mM and 15 mM glucose alone, without or with 10 nM insulin (FIG. 3A), listed as GKA
Description: as §1, §3

hepatocytes [3] = assay: Glucose phosphorylation in hepatocytes ([2-3H]glucose to 3H2O); settings: 2 hours, 10 nM insulin, 5, 15 or 25 mM glucose, 10 μM GKA vs glucose alone (FIG. 2A)
Description: as §1

O=CC[C@@H](O)[C@H](O)[C@H](O)CO [DG, 2-deoxyglucose]
H6P concentration (hepatocytes [1]): causes elevation in the cell hexose 6-phosphate (H6P) content
H6P concentration (hepatocytes [1]; listed as 2DG): H6P concentration increases with increasing 2DG
G6pc mRNA relative expression (G6pc mRNA): does not cause induction of expression of G6pc mRNA
G6pc mRNA relative expression (G6pc mRNA; listed as 2DG): does not affect G6pc mRNA relative expression
Gck mRNA relative expression (Gck mRNA): repression of Gck mRNA
Gck mRNA relative expression (Gck mRNA; listed as 2DG): decrease in Gck mRNA expression

CS(=O)(=O)c1ccc(C(CC2CCCC2)C(=O)Nc2nccs2)cc1 (stereo not drawn) [RO 28-1675, 3-cyclopentyl-2-(4-methanesulfonylphenyl)-N-thiazol-2-yl-propionamide]
fractional increase in G6P compared with fractional increase in metabolic flux (hepatocytes [1]; basal (5 mM) and moderate (15 mM) glucose, 10 μM GKA): greater
glucose-6-phosphate concentration (hepatocytes [1]): increased the concentration of G6P more than glucose alone
glucose-6-phosphate concentration (hepatocytes [1]; listed as GKA): increases the cell concentration of G6P at all glucose concentrations
relative expression of Pklr mRNA (Pklr mRNA; 10 nM insulin, 5, 15 or 25 mM glucose, -/+ 10 μM GKA (FIG. 4B)): induces the expression of both G6pc and Pklr mRNA; also recorded: increased relative expression of Pklr mRNA
relative expression of Pklr mRNA (Pklr mRNA; GKA with 15 mM glucose vs 5 mM and 15 mM glucose alone (FIG. 3C)): increase in relative expression of both Pklr and G6pc mRNA; also recorded: increased relative expression of Pklr mRNA
fructose 2,6-bisphosphate concentration (hepatocytes [2]): increase in F-2,6-P2; also recorded: increases F-2,6-P2 more than 5 mM glucose and 15 mM glucose
glucose phosphorylation (hepatocytes [3]): increased phosphorylation more than glucose alone
glucose phosphorylation (hepatocytes [3]; listed as GKA): increases the rate of phosphorylation of glucose
relative expression of G6pc mRNA (G6pc mRNA; 10 nM insulin, 5, 15 or 25 mM glucose, -/+ 10 μM GKA (FIG. 4C), listed as GKA): induces the expression of both G6pc and Pklr mRNA; also recorded: increased relative expression of Pklr mRNA and G6pc mRNA at all glucose concentrations
relative expression of G6pc mRNA (G6pc mRNA; GKA with 15 mM glucose vs 5 mM and 15 mM glucose alone (FIG. 3B)): increase in relative expression of both Pklr and G6pc mRNA
relative expression of Gck mRNA (Gck mRNA; 10 nM insulin, 5, 15 or 25 mM glucose, -/+ 10 μM GKA (FIG. 4A)): represses the relative expression of Gck; also recorded: able to reduce Gck expression; also recorded: reduced the relative expression of Gck mRNA at all glucose concentrations
relative expression of Gck mRNA (Gck mRNA; GKA with 15 mM glucose vs 5 mM and 15 mM glucose alone (FIG. 3D)): decrease in relative expression of Gck mRNA; also recorded: decreased relative expression of Gck mRNA
